Measured values reported in US20030232102A1, “Total glycosides of paeony, method to prepare the same and uses thereof” (priority 2001, published 2003).
Where two headings read alike, the source gives them in different places.

How the values were obtained:
[1] = test system: Wistar rats, Model of Arthritis (BCG vaccine); test: Primary inflammation: degree of swelling of injected feet, BCG vaccine arthritis model; type: in vivo
Protocol: (§1) Animal: Wistar rats, 2-3 months, 180±30 g.
(§2) Chemical agents: Paeoniflorin R1, Lobenzarit disodium (CCA), Indomethacin (IM), and BCG vaccine
(§3) Model of Arthritis: inject 0.1 ml of 10 mg BCG vaccine to the right hind foot, bottom side, intracutaneously.
Primary inflammation: Degree of swelling of injected feet (primary inflammation): oral treatment was given 30 minutes before the inflammatory injection (BCG vaccine). The degree of swelling was measured 1, 3, 5, and 7 days after the injection.
Oral administration of Paeoniflorin R1 30˜60 minutes before inflammatory injection.
TGP's influence on degree of swelling of injected feet (primary inflammation)

[2] = test system: Wistar rats, Model of Arthritis (BCG vaccine); test: Secondary inflammation: swelling of opposite non-injected feet and thymus weight, BCG vaccine arthritis model; type: in vivo; details: for Degree of Swelling Day 12 / Degree of Swelling Day 16 / Degree of Swelling Day 20 / Degree of Swelling Day 24 / Degree of Swelling Day 28: non-injected feet
Protocol: as §1, §2, §3
Secondary inflammation: Swelling degree of the opposite non-injected feet (secondary inflammation): oral treatment was given 12-28 days after the inflammatory injection. The degree of swelling was measured 12, 16, 20, 24 and 28 days after the injection.
Groups of animals for secondary inflammation: 6 groups, each contains 6 rats, groups are: 1) Normal control, receive no inflammatory injection and any pre treatment; 2) Negative control, receive inflammatory injection and no treatment; 3) Positive control, receive inflammatory injection and CCA treatment; 4) Paeoniflorin R1 groups (5, 25, 50 mg/kg/d) oral administration of Paeoniflorin R1 30˜60 minutes before inflammatory injection.
TGP's influence on degree of swelling of opposite, non-injected feet (secondary inflammation)

[3] = test system: abdominal cavity macrophage; test: H2O2, IL-1 and PGE2 produced by abdominal cavity macrophage of arthritis rats (Paeoniflorin R1); type: in vivo; details: 25 mg/kg from 7 days after inflammatory injection, sacrificed day 17; FIG. 44
Protocol: Amount of H2O2, IL-1, and PGE2 produced by abdominal cavity macrophage: Use 5 rats in each group, paeoniflorin R1 (25 mg/kg) treatment starts 7 days after inflammatory injection, animal sacrificed on day 17.

[4] = test system: sub-group T cell in peripheral circulation; test: Sub-group T cell (Th/Ts) in peripheral circulation of arthritis rats (Paeoniflorin R1); type: in vivo; details: 25 mg/kg from 18 days after inflammatory injection, sacrificed day 26; P<0.01; FIG. 45
Protocol: Sub-Group T Cell in Peripheral Circulation
Paeoniflorin R1 treatment (25 mg/kg) started at 18 days after inflammatory injection, animal sacrificed on day 26.

[5] = test system: abdominal cavity macrophage; test: Kinemics of abdominal cavity macrophage PGE2 release in arthritis rats (Paeoniflorin R1); type: in vivo; details: treatment from 1st day after inflammatory injection, sacrificed day 7, 14, 21, 28; FIG. 46
Source text: Kinemics in Abdominal Cavity Macrophage Release PGE2
Paeoniflorin R1 treatment started the 1st day after inflammatory injection, animal sacrificed on day 7, 14, 21, and 28.

[6] = test system: synovial cells; test: IL-1, TNF and PGE2 produced by synovial cells of arthritis rats (Paeoniflorin R1); type: in vivo; details: 25 mg/kg from 12 days after inflammatory injection, sacrificed day 22; P<0.01
Protocol: IL-1, TNF, and PGE2 Produced by Synovial Cells
Paeoniflorin R1 treatment (25 mg/kg) started at 12 days after inflammatory injection, animal sacrificed on day 22.

[7] = test system: histidine-requiring salmonell typhimurrium mutants TA 97, TA 98, Ta 100 and TA 102; details: +S9, 2-AF 10 μg/plate
Protocol: That was a parallel test between two groups of plates with or without the mixture of S9.
Each course was to be performed twice for three plates of different concentrations. Positive indicators and solvent control were included within all courses. Courses were performed with a ‘pre-incubation’ method, and the final result comes out in average from total six values.

[8] = test system: Sprage-Dawley (SD) rats, adjuvant arthritis; test: Adjuvant arthritis in rats (FCA): secondary inflammation, non-injected foot, thymus, pathology; type: in vivo
[9] = test system: Sprage-Dawley (SD) rats, adjuvant arthritis; test: Adjuvant arthritis in rats (FCA): primary inflammation, injected foot; type: in vivo
[10] = test system: Chinese hamaster lung fibroblast (CHL) cells; type: cell-based
Protocol: TGP, was dissolved in methyl-sulfoxide.
With method of Ishidate (1981), cells were collected in 24 and 48 hours for S9− groups and 24 hours for S9+. All assays were performed twice and their average was taken for final results.

[11] = test system: ICR mice; test: Enhanced delayed type hypersensitivity (DTH) reaction of mice induced by cyclophosphamide; type: in vivo; details: Cy + Solvent, Cy 250 mg/kg i.p. at d-3
Protocol: Cyclophosphamide was administered 3 days before (d-3) the first day sensitization (enhanced DTH model).

[12] = test system: mice, IgM in the spleen cells; test: Weakened IgM formation of mice induced by cyclophosphamide; type: in vivo; details: Cy + solvent, Cy 125 mg/kg i.p. at d-3
Protocol: All groups of mice were sensitized with 0.2 ml 10% SRBC suspension i.p., mice were also administered 125 mg/kg of cyclophosphamide 3 days before the sensitization to make up the models of weakened immunoreactions. […] The mice were killed on the fifth day, organs of spleens and thymus were weighted and quantity of IgM in the spleen cells examined.

[13] = test system: mice, IgM in the spleen cells; test: Enhanced IgM formation of mice induced by cyclophosphamide (spleen cell transfer); type: in vivo; details: group C: donor mice SOI + Cy + solvent, Cy 100 mg/kg i.p.
Source text: See table 49 and table 50 for grouping and test procedures: spleen cells of donor mice are transferred to acceptor mice. And, SRBC (4×10^8/mouse i.p.) are given to the acceptor mice for additional immune enhancement. Acceptors are killed on the fifth day of transference and examined for the quantity of IgM in the spleen cells.

[14] = test system: ICR mice; details: CTX 80 mg/kg
Protocol: ICR mice of sexual maturity, all males. Six random groups with eight mice in each one.
With a gradient of 4:1, the four concentrations were set at 2500 mg/kg, 625 mg/kg, […] and 39 mg/kg.
The drug was administered by gastric injection at the above doses together with the positive indicator (Cytoxan) and the solvent control. The course was repeated after 24 hours and animals were killed six hours after the second administration. Samples were taken and examined.

[15] = test system: pregnant Wistar rats; test: Test of teratogenesis in pregnant rats; type: in vivo; details: 250 mg/kg
Protocol: Ninety pregnant Wistar rats were numbered by their date of fertilization and randomly divided into five groups. The other two were for the control groups.
A positive and a negative control groups were also set up, rats were given acetosalicylic acid (250 mg/kg) in the positive group and distilled water of the same volume in the negative group.
The positive control group was treated with the acetosalicylic acid from day 9 to 11. Both were by gastric injection.
The body weight of rats in all groups was taken once every three days, and the amount of drugs were adjusted individually after the body weight. Rats were killed at day 20 of pregnancy, wombs and embryos were extracted by cesarean section, which was for the study and examination in a traditional way.

[16] = S9+, CP (60.0 μg/ml, 24, by row order of Table 43)

2-hydroxy-3 Methyl-Glucoside-4-Oxo-7-Carbonyl-Tricyclo [3,2,2,0^1,2]-Nonanyl-Benzoicmethoxycarbonyl [Paeoniflorin R1]
Degree of Swelling Day 1 ([1]; 25 mg/kg/d oral): 0.59 | Degree of Swelling Day 3 ([1]; 25 mg/kg/d oral): 0.81 | Degree of Swelling Day 5 ([1]; 25 mg/kg/d oral): 0.50 | Degree of Swelling Day 7 ([1]; 25 mg/kg/d oral): 0.40 | W. of Thymus Glands ([2]; 5 mg/kg/d oral): 16.3 mg/kg body W. | W. of Thymus Glands ([2]; 25 mg/kg/d oral): 19.4 mg/kg body W. | W. of Thymus Glands ([2]; 50 mg/kg/d oral): 13.9 mg/kg body W. | Degree of Swelling Day 12 ([2]; 5 mg/kg/d oral): 0.35 | Degree of Swelling Day 16 ([2]; 5 mg/kg/d oral): 0.42 | Degree of Swelling Day 20 ([2]; 5 mg/kg/d oral): 0.33 | Degree of Swelling Day 24 ([2]; 5 mg/kg/d oral): 0.25 | Degree of Swelling Day 28 ([2]; 5 mg/kg/d oral): 0.26 | Degree of Swelling Day 12 ([2]; 25 mg/kg/d oral): 0.41± | Degree of Swelling Day 16 ([2]; 25 mg/kg/d oral): 0.39 | Degree of Swelling Day 20 ([2]; 25 mg/kg/d oral): 0.20 | Degree of Swelling Day 24 ([2]; 25 mg/kg/d oral): 0.15 | Degree of Swelling Day 28 ([2]; 25 mg/kg/d oral): 0.23 | Degree of Swelling Day 12 ([2]; 50 mg/kg/d oral): 0.40 | Degree of Swelling Day 16 ([2]; 50 mg/kg/d oral): 0.39 | Degree of Swelling Day 20 ([2]; 50 mg/kg/d oral): 0.30 | Degree of Swelling Day 24 ([2]; 50 mg/kg/d oral): 0.27 | Degree of Swelling Day 28 ([2]; 50 mg/kg/d oral): 0.24 | Amount of H2O2, IL-1, and PGE2 produced by abdominal cavity macrophage [3]: can decrease the above reaction | Th/Ts in peripheral circulation [4]: can improve Th/Ts | abdominal cavity macrophage PGE2 release [5]: effective in PGE2 release | IL-1, TNF, and PGE2 produced by synovial cells (result worded as Th/Ts) [6]: can improve Th/Ts

Nc1ccc2c(c1)Cc1ccccc1-2 [2-AF]
reverting colonies, AT 97 [7]: 598 ± 27.4 | reverting colonies, AT 98 [7]: 974 ± 30.7 | reverting colonies, AT 100 [7]: 772 ± 29.8

O=C(O)c1ccccc1Nc1cc(Cl)ccc1C(=O)O [CCA, Lobenzarit disodium]
Degree of Swelling Day 1 ([1]; 50 mg/kg/d oral): 0.65 | Degree of Swelling Day 3 ([1]; 50 mg/kg/d oral): 0.96 | Degree of Swelling Day 5 ([1]; 50 mg/kg/d oral): 0.68 | Degree of Swelling Day 7 ([1]; 50 mg/kg/d oral): 0.65 | W. of Thymus Glands ([2]; 50 mg/kg/d oral): 14.4 mg/kg body W. | Degree of Swelling Day 12 ([2]; 50 mg/kg/d oral): 0.40 | Degree of Swelling Day 16 ([2]; 50 mg/kg/d oral): 0.55 | Degree of Swelling Day 20 ([2]; 50 mg/kg/d oral): 0.42 | Degree of Swelling Day 24 ([2]; 50 mg/kg/d oral): 0.14 | Degree of Swelling Day 28 ([2]; 50 mg/kg/d oral): 0.05 | weight of thymus ([8]; AA rats, gastric infusion d12 through d20): the weight of their thymus are gained | joint swelling ([8]; AA rats, gastric infusion d12 through d20, all three doses of TGP, one dose CCA): certain improvements in joint swelling | weight of thymus ([8]; CCA 50 mg/kgd): 14.3 ± 3.9 | Degree of Swelling, non-injected foot ([8]; d20, CCA 50 mg/kgd): 0.41 ± 0.22 mL | Degree of Swelling, non-injected foot ([8]; d24, CCA 50 mg/kgd): 0.14 ± 0.15 mL | Degree of Swelling, non-injected foot ([8]; d28, CCA 50 mg/kgd): 0.05 ± 0.02 mL | Degree of swelling, injected foot ([9]; d3, CCA 50 mg/kgd): 0.94 ± 0.17 | Degree of swelling, injected foot ([9]; d5, CCA 50 mg/kgd): 0.67 ± 0.18 | Degree of swelling, injected foot ([9]; d7, CCA 50 mg/kgd): 0.63 ± 0.18

O=P1(N(CCCl)CCCl)NCCCO1 (centres unmarked) [CP, Cyclophosphamide]
Result of chromosome aberration test ([10]; CP (15 μg/ml, 48, by row order of Table 43)): + + | Result of chromosome aberration test ([10]; CP (60.0 μg/ml, 24, by row order of Table 43)): + + | Deformation (types) [10, 16]: g, p, b, r, t, f | Deformation Rate [10, 16]: 44.0% | Deformation Rate ([10]; S9−, CP 15 μg/ml, incubation 48): 34.5% | Degree of ear swelling [11]: 28.1 ± 7.2 | Quantity of Ig M (A value) [12]: 0.41 ± 0.10 | Weight of Spleen [12]: 56.6 +11.5 | weight of thymus [12]: 6.2 ± 4.7 | Ig M (A), acceptor mice [13]: 0.53 ± 0.03^ΔΔ | Rate of inhibition [13]: 24.3

O=P1(N(CCCl)CCCl)NCCCO1 (centres unmarked) [CTX, Cytoxan]
MPCE % ± SD [14]: 41.37 ± 10.29%

COc1ccc2c(c1)c(CC(=O)O)c(C)n2C(=O)c1ccc(Cl)cc1 [IM, Indomethacin]
Degree of Swelling Day 1 ([1]; 2 mg/kg/d oral): 0.52 | Degree of Swelling Day 3 ([1]; 2 mg/kg/d oral): 0.57 | Degree of Swelling Day 5 ([1]; 2 mg/kg/d oral): 0.34 | Degree of Swelling Day 7 ([1]; 2 mg/kg/d oral): 0.30 | abdominal cavity macrophage PGE2 release [5]: effective in PGE2 release

CO[C@@]12[C@H](COC(N)=O)C3=C(C(=O)C(C)=C(N)C3=O)N1C[C@@H]1N[C@@H]12 [MMC, Mitomycin C]
Deformation (types) [10]: g, b, p, t, f | Deformation Rate [10]: 79.5%

CC(=O)Oc1ccccc1C(=O)O [acetosalicylic acid]
malformation in appearance (harelip, split tongue, short body, abnormal limbs) [15]: 4.4% | deformity rate in skeletal system ([15]; P<0.01): 69.5% | growth of embryo rats vs negative control ([15]; P<0.01 and P<0.05): showed differences in the body weight and length of embryos | absorptive embryo rate, dead embryo rate, survival rate vs negative control ([15]; day 9 to 11, P<0.01): much higher absorptive embryo rate, and dead embryo rate, and lower survival rate
